Data taken from PubChem BioAssay AID1918933 (Molecular Pharmacology Branch, DTP, NCI, 2023).
Where “and” joins values, the source holds several entries; their conditions need not be identical. Identical values can stand only once.

Test system: 186277-243-T-J2-PDC complex spheroid viability
Experiment: Anticancer human tumor 186277-243-T-J2-PDC patient-derived colon adenocarcinoma cell line growth inhibition
Details: for viability, T/C: stronger effect = lower value
Procedure, shortened: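 Drug combinations with the LSD1 inhibitor iadademstat tested on tumor cells co-cultured as spheroids with endothelial cells and mesenchymal stem cells. Concentrations descended in half-log increments from clinical Cmax or 10 microM.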

[1] = curve of first compound, second compound 0.1 µM
[2] = curve of first compound, second compound 0.316 µM
[3] = curve of first compound, second compound 1 µM
[4] = curve of first compound, second compound 3.16 µM
[5] = curve of first compound, second compound 10 µM
[6] = second compound 0.1 µM, first compound 0.0316 µM
[7] = second compound 0.1 µM, first compound 0.1 µM
[8] = second compound 0.1 µM, first compound 0.316 µM
[9] = second compound 0.1 µM, first compound 1 µM
[10] = second compound 0.1 µM, first compound 3.16 µM
[11] = second compound 0.1 µM, first compound 10 µM
[12] = second compound 0.316 µM, first compound 0.0316 µM
[13] = second compound 0.316 µM, first compound 0.1 µM
[14] = second compound 0.316 µM, first compound 0.316 µM
[15] = second compound 0.316 µM, first compound 1 µM
[16] = second compound 0.316 µM, first compound 3.16 µM
[17] = second compound 0.316 µM, first compound 10 µM
[18] = second compound 1 µM, first compound 0.0316 µM
[19] = second compound 1 µM, first compound 0.1 µM
[20] = second compound 1 µM, first compound 0.316 µM
[21] = second compound 1 µM, first compound 1 µM
[22] = second compound 1 µM, first compound 3.16 µM
[23] = second compound 1 µM, first compound 10 µM
[24] = second compound 3.16 µM, first compound 0.0316 µM
[25] = second compound 3.16 µM, first compound 0.1 µM
[26] = second compound 3.16 µM, first compound 0.316 µM
[27] = second compound 3.16 µM, first compound 1 µM
[28] = second compound 3.16 µM, first compound 3.16 µM
[29] = second compound 3.16 µM, first compound 10 µM
[30] = second compound 10 µM, first compound 0.0316 µM
[31] = second compound 10 µM, first compound 0.1 µM
[32] = second compound 10 µM, first compound 0.316 µM
[33] = second compound 10 µM, first compound 1 µM
[34] = second compound 10 µM, first compound 3.16 µM
[35] = second compound 10 µM, first compound 10 µM
[36] = second compound 0.1 µM, first compound 0.00316 µM
[37] = second compound 0.1 µM, first compound 0.01 µM
[38] = second compound 0.316 µM, first compound 0.00316 µM
[39] = second compound 0.316 µM, first compound 0.01 µM
[40] = second compound 1 µM, first compound 0.00316 µM
[41] = second compound 1 µM, first compound 0.01 µM
[42] = second compound 3.16 µM, first compound 0.00316 µM
[43] = second compound 3.16 µM, first compound 0.01 µM
[44] = second compound 10 µM, first compound 0.00316 µM
[45] = second compound 10 µM, first compound 0.01 µM
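Note: 7 day exposure to compounds.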
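Throughout, for viability, T/C: 100% = DMSO vehicle control viability.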

Work on `CC(C)c1c(-c2ccccc2)nc2c(C#N)c[nH]n2c1=O` + NC1CCC(NC2CC2c2ccccc2)CC1 yielded an IC50 [1] of over 10000 nM, an IC50 [2] of over 10000 nM and an IC50 [3] of over 10000 nM. For the same compound, the IC50 [4] was over 10000 nM, the IC50 [5] was over 10000 nM and the viability, T/C [6] was 112%. The viability, T/C [7] was 118%, the viability, T/C [8] was 114% and the viability, T/C [9] was 105%. For the same compound, the viability, T/C [10] was 114%, the viability, T/C [11] was 103% and the viability, T/C [12] was 108%. The viability, T/C [13] was 125%, the viability, T/C [14] was 115% and the viability, T/C [15] was 115%. For the same compound, the viability, T/C [16] was 108%, the viability, T/C [17] was 96.8% and the viability, T/C [18] was 110%. It also gave a viability, T/C [19] of 110%, a viability, T/C [20] of 108% and a viability, T/C [21] of 112%. It also gave a viability, T/C [22] of 109%, a viability, T/C [23] of 106% and a viability, T/C [24] of 112%. It also gave a viability, T/C [25] of 119%, a viability, T/C [26] of 112% and a viability, T/C [27] of 121%. For the same compound, the viability, T/C [28] was 107%, the viability, T/C [29] was 105% and the viability, T/C [30] was 104%. It also gave a viability, T/C [31] of 101%, a viability, T/C [32] of 107% and a viability, T/C [33] of 110%. For the same compound, the viability, T/C [34] was 101% and the viability, T/C [35] was 90.5%.
Compound `O=C(C=Cn1cnc(-c2cc(C(F)(F)F)cc(C(F)(F)F)c2)n1)NNc1cnccn1` + NC1CCC(NC2CC2c2ccccc2)CC1 has an IC50 [1] of 16.6 nM, an IC50 [2] of 18.6 nM and an IC50 [3] of 17 nM. It also gave an IC50 [4] of 18.2 nM, an IC50 [5] of 16.8 nM and a viability, T/C [36] of 98.7%. For the same compound, the viability, T/C [37] was 73.7%, the viability, T/C [6] was 19.7% and the viability, T/C [7] was 5.58%. The viability, T/C [8] was 3.09%, the viability, T/C [9] was 0.76% and the viability, T/C [38] was 98.9%. For the same compound, the viability, T/C [39] was 83.6%, the viability, T/C [12] was 20.9% and the viability, T/C [13] was 10.7%. It also gave a viability, T/C [14] of 3.03%, a viability, T/C [15] of 2.56% and a viability, T/C [40] of 91.4%. For the same compound, the viability, T/C [41] was 76.3%, the viability, T/C [18] was 19.3% and the viability, T/C [19] was 7.63%. For the same compound, the viability, T/C [20] was 3.96%, the viability, T/C [21] was 0.59% and the viability, T/C [42] was 121%. The viability, T/C [43] was 83.3%, the viability, T/C [24] was 19.2% and the viability, T/C [25] was 5.56%. For the same compound, the viability, T/C [26] was 5.32%, the viability, T/C [27] was 0.63% and the viability, T/C [44] was 131%. It also gave a viability, T/C [45] of 76.8%, a viability, T/C [30] of 17.3% and a viability, T/C [31] of 4.86%. It also gave a viability, T/C [32] of 3.33% and a viability, T/C [33] of 0.57%.
`CC1COCCN1c1cc(C2(S(C)(=N)=O)CC2)nc(-c2ccnc3[nH]ccc23)n1` (configuration not stated) was tested, and the viability, T/C (compound 0.0316 µM) was 103% and 87.2%, the viability, T/C (compound 0.1 µM) was 93.4% and 94.7% and the viability, T/C (compound 0.316 µM) was 44.4% and 91.3%. The viability, T/C (compound 1 µM) was 14.2% and 48%, the viability, T/C (compound 3.16 µM) was 8.73% and 10% and the viability, T/C (compound 10 µM) was 9.16% and 5.79%. For the same compound, the IC50 (curve of compound) was 278 nM and 952 nM.
Compound `CC(C)c1c(-c2ccccc2)nc2c(C#N)c[nH]n2c1=O` + NC1CC1c1ccc(-c2cccc(O)c2)cc1 has an IC50 [1] of over 10000 nM, an IC50 [2] of over 10000 nM and an IC50 [3] of over 10000 nM. For the same compound, the IC50 [4] was over 10000 nM, the IC50 [5] was over 10000 nM and the viability, T/C [6] was 114%. For the same compound, the viability, T/C [7] was 101%, the viability, T/C [8] was 106% and the viability, T/C [9] was 85.4%. It also gave a viability, T/C [10] of 88.1%, a viability, T/C [11] of 72.5% and a viability, T/C [12] of 95.9%. It also gave a viability, T/C [13] of 107%, a viability, T/C [14] of 104% and a viability, T/C [15] of 100%. For the same compound, the viability, T/C [16] was 85.9%, the viability, T/C [17] was 78.5% and the viability, T/C [18] was 106%. The viability, T/C [19] was 99.8%, the viability, T/C [20] was 93% and the viability, T/C [21] was 96.2%. For the same compound, the viability, T/C [22] was 95.4%, the viability, T/C [23] was 73.7% and the viability, T/C [24] was 101%. For the same compound, the viability, T/C [25] was 106%, the viability, T/C [26] was 111% and the viability, T/C [27] was 108%. It also gave a viability, T/C [28] of 96.9%, a viability, T/C [29] of 80.9% and a viability, T/C [30] of 88.9%. It also gave a viability, T/C [31] of 86%, a viability, T/C [32] of 102% and a viability, T/C [33] of 97.6%. It also gave a viability, T/C [34] of 85% and a viability, T/C [35] of 74.6%.
In the case of `CC(C)CC(NC(=O)C(Cc1ccccc1)NC(=O)c1cnccn1)B(O)O` (configuration not stated), the viability, T/C (compound 0.000316 µM) is reported as 96.1% and 94%, the viability, T/C (compound 0.01 µM) is reported as 3.46% and 0.11% and the viability, T/C (compound 0.0316 µM) is reported as 2.69% and 0.11%. For the same compound, the viability, T/C (compound 0.1 µM) was 3.82% and 0.17% and the IC50 (curve of compound) was 2.74 nM and 0.548 nM.
`COc1cc(Nc2ncc3c(n2)-c2ccc(Cl)cc2C(c2c(F)cccc2OC)=NC3)ccc1C(=O)O` + NC1CC1c1ccc(-c2cccc(O)c2)cc1 was tested, and the IC50 [1] was over 1000 nM, the IC50 [2] was over 1000 nM and the IC50 [3] was over 1000 nM. For the same compound, the IC50 [4] was over 1000 nM, the IC50 [5] was over 1000 nM and the viability, T/C [36] was 128%. The viability, T/C [37] was 115%, the viability, T/C [6] was 116% and the viability, T/C [7] was 107%. It also gave a viability, T/C [8] of 124%, a viability, T/C [9] of 111% and a viability, T/C [38] of 133%. It also gave a viability, T/C [39] of 125%, a viability, T/C [12] of 119% and a viability, T/C [13] of 108%. For the same compound, the viability, T/C [14] was 124%, the viability, T/C [15] was 109% and the viability, T/C [40] was 140%. The viability, T/C [41] was 132%, the viability, T/C [18] was 130% and the viability, T/C [19] was 117%. It also gave a viability, T/C [20] of 131%, a viability, T/C [21] of 114% and a viability, T/C [42] of 155%. For the same compound, the viability, T/C [43] was 143%, the viability, T/C [24] was 143% and the viability, T/C [25] was 126%. It also gave a viability, T/C [26] of 128%, a viability, T/C [27] of 111% and a viability, T/C [44] of 137%. The viability, T/C [45] was 139%, the viability, T/C [30] was 130% and the viability, T/C [31] was 123%. It also gave a viability, T/C [32] of 120% and a viability, T/C [33] of 89.8%.
